Data published in patent US11130974B2, “Hydroxylated fatty acid homopolymer and production method thereof” (KYOTO UNIVERSITY, priority 2017, dated 2021).

Target: T1, hydroxylated fatty acid dehydrogenase (CLA-DH) (Lactiplantibacillus plantarum, UniProt P0DX40)
T1 construct: made in house; host or cells: Escherichia coli (cell-free extract, not purified)
T1 sequence (P0DX40 1-286): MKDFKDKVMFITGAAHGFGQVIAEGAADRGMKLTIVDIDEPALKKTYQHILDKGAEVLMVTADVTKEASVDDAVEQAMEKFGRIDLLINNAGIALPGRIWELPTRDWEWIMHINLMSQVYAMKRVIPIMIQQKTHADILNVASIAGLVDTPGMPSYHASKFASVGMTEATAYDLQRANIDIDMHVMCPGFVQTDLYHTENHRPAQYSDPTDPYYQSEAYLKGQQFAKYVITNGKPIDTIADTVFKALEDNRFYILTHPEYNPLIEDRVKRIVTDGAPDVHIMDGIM
Experiment: Comparison of oxidation stability: oxidation reaction with NAD+ in the presence of hydroxylated fatty acid dehydrogenase (CLA-DH), NADH measured at 340 nm
Format: biochemical
Conditions: 0.143 mg/mL substrate (0.48 mM HYA), 4 mM NAD+, CLA-DH-expressing Escherichia coli cell-free extract, 37° C., about 6 min
Description: The oxidation stability was compared between the reaction extract (homopolymer mixture) obtained in Example 1 and HYA. The oxidation reaction was performed using NAD^+ as an electron receptor in the presence of hydroxylated fatty acid dehydrogenase (CLA-DH) (S. Kishino et al., Polyunsaturated fatty acid saturation by gut lactic acid bacteria affecting host lipid composition. Proc. Natl. Acad. Sci. USA, 110(44), 17808-17813, 2013).
The reaction mixture (3 mL) contained CLA-DH-expressing Escherichia coli cell-free extract (150 μL, derived from 50 mg Escherichia coli wet cells) as hydroxylated fatty acid dehydrogenase, 4 mM NAD^+, 150 μL of ethanol, and 0.48 mM (0.143 mg/mL) HYA or equal amount (0.143 mg/mL) of a homopolymer mixture as a substrate, and the reaction was started by the addition of hydroxylated fatty acid dehydrogenase and performed at 37° C. for about 6 min. […] The progress of oxidation was quantified by measuring the change in absorbance at 340 nm of NADH amount produced by the oxidation of the substrate (the molecular absorption coefficient of NADH was 6.3×10^3 L·mol^−1 cm^−1).

SMILES: CCCCC/C=C\CC(O)CCCCCCCCC(=O)O (stereo not drawn) [HYA, 10-hydroxy-cis-12-octadecenoic acid]
- oxidation rate: 2.9 µM/min
